# Test results: patent US10639299B2, “Calcium sensing receptors, ligands, compositions, and methods of use” (Georgia State University Research Foundation, Inc., priority 2016, dated 2020)
# Target: T1, hCaSR-ECD (Homo sapiens, UniProt P41180)
# T1 construct: made in house; host or cells: HEK293S (GnTI-) suspension culture, secreted
# T1 sequence (P41180 20-612): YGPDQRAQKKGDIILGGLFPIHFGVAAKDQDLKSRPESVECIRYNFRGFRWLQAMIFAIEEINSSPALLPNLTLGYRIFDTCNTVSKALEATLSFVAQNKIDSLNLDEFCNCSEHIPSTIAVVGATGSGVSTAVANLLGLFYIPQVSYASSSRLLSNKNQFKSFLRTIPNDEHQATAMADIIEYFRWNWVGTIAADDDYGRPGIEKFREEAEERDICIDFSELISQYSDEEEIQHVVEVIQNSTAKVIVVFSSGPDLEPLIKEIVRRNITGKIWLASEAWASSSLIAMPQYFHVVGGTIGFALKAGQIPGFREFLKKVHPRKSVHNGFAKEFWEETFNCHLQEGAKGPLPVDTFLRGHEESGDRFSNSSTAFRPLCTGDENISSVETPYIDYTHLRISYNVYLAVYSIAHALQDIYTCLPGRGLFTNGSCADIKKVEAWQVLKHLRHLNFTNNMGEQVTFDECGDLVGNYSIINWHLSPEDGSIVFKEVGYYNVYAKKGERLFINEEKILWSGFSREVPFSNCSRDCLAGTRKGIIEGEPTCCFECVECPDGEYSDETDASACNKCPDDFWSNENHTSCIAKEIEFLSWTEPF
# Experiment: Phenylalanine replacement of TNCA bound to hCaSR-ECD, LC-ESI-MS
# Format: binding
# Conditions: overnight, 838 at 0 mM
# Method: Considering CaSR ligand is tightly bound with hCaSR-ECD, it is conceivable that hCaSR-ECD has to be denatured to release CaSR ligand. To extract CaSR ligand, 50 μL of purified hCaSR-ECD (10 mg/mL) was mixed with 120 μL acetonitrile and vortexed. After high speed centrifugation, 10 μL of the CaSR ligand extract was injected onto a reverse-phase ACQUITY UPLC BEH C18 column (2.1 mm×100 mm, 1.7-μm particle size; Waters). Column temperature was maintained at 40° C. The flow rate was 0.3 mL/min with starting conditions at 99% solvent A (water+0.1% formic acid) and 1% solvent B (acetonitrile). The 15-min gradient profile for elution was as follows: starting at 1% solvent B and hold for 1 min, then ramping to 98% B at 10 min, hold at 98% B to 12 min, at 12.01 min return to 99% A/1% B and maintain until 15 min. The samples were analyzed by using a Waters Xevo G2-XS QToF LC-MS interfaced to a Waters Acquity UPLC system. […] Fragmentation, formula, and abundances were analyzed with Waters MassLynx Software.
# A phenylalanine replacement experiment was carried out by mixing purified hCaSR-ECD protein (0.26 mg/mL) with phenylalanine (final concentrations are 0, 50 and 150 mM, respectively). […] The protein samples were adjusted to the same concentration using SEC buffer and analyzed by LC-ESI-MS.
compound,measurement,setting,value
"N[C@@H](Cc1ccccc1)C(=O)O [Phe, phenylalanine]",area under the MS peak of TNCA remaining bound to hCaSR-ECD,50 mM phenylalanine,180
same,area under the MS peak of TNCA remaining bound to hCaSR-ECD,150 mM phenylalanine,76
